Assays:
[1] = tested on: c-Myc, AKT, ERK1/2 in LNCaP tumor xenografts; test: Western blot of c-Myc and signaling proteins in LNCaP-xenografted tumors (FIG. 14); format: in vivo, mouse; settings: LNCaP xenograft; HS1002 1 mg/kg/day, LA 0.1 mg/kg/day s.c.
Procedure: The cells and tumor tissues were homogenized using the PRO-PREP™ extraction solution (iNtRON Biotechnology, Seongnam, Korea). After incubation, the homogenate was centrifuged at 16,000×g for 20 min at 4° C., and the supernatant was collected for western blot analysis. Subsequently, an equivalent quantity of protein was separated using sodium dodecyl sulfate polyacrylamide gels and transferred onto a polyvinylidene difluoride (PVDF) membrane. The PVDF membranes were incubated with the primary antibodies overnight at 4° C., washed with tris-buffered saline, and then incubated with HRP-conjugated anti-mouse or anti-rabbit antibodies. The bands were visualized using a ChemiDoc imaging system (Bio-Rad, Hercules, CA, USA). The band intensities were determined using an Image J software.
All mice were purchased from Central Lab Animal Inc. ([…]). They were raised in a 12 h environmental light/dark cycle with controlled temperature (22±2° C.) conditions. The experimental protocol was approved by the Sungkyunkwan University Institutional Animal Care and Use Committee (SKKUIACUC2021-06-27-1, SKKUIACUC2023-01-07-1). For the establishment of tumors, LNCaP (1×10^7), MC38 (2×10^5), and 4T1 (1×10^6) suspended in serum-free media containing 50% Matrigel was subcutaneously administered in the right flank of mice, respectively. The tumor volumes (V) were calculated using a caliper and the standard equation: V (mm^3)=0.52 (ab^2) (a=length, b=width). Once the tumor reached 100-200 mm^3, the mice were randomly divided into different groups and subcutaneously injected with a vehicle or each peptide every day.
To investigate the anticancer effect of HS1002, the present inventors observed the volume of cancer cells after transplanting the cancer cells into experimental animals. Specifically, mice (4-week-old male BALB/c nude mice; Central Lab. Animal Inc., Seoul, Korea) were prepared, and tumor cells (1×10^7 LNCaP cells) suspended in 1 mL of a serum-free medium containing 50% Matrigel were percutaneously injected into the upper flank of each nude mouse. When the tumor cell volume reached about 200 mm^3, the mice were randomly assigned to a vehicle control group, a leuprolide acetate-treated group, and test groups (GV1001-treated group and HS1002-treated group), respectively. Leuprolide acetate (0.1 mg/kg/day) and GV1001 and HS1002 (1 mg/kg/day) were injected subcutaneously for 13 days.

[2] = molecular target: T1, HEK293-GnRHR cells (Homo sapiens, UniProt P30968); test: CRE-luciferase reporter assay; format: cell-based; settings: 100 nM, 24 h
T1 construct: GFP; expressed in transfected cells
T1 sequence (P30968 1-328): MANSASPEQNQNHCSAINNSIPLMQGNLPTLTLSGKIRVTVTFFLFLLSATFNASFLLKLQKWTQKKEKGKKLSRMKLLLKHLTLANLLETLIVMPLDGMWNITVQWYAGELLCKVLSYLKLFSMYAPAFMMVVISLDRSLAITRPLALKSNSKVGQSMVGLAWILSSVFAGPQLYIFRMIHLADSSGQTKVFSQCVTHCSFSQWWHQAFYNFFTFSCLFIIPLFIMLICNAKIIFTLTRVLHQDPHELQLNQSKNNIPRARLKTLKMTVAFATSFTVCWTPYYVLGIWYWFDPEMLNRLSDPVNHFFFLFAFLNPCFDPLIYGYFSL
Procedure: (§1) Human embryonic kidney cell line (HEK293), and mouse cancer cell lines (MC38, 4T1) were purchased from the American Type Culture Collection (Manassas, VA, USA). All cell lines were grown in Dulbecco's Modified Essential Medium (DMEM) or Roswell Park Memorial Institute (RPMI) 1640 supplemented with 10% FBS, 100 U/mL penicillin, and 100 μg/mL streptomycin (WelGENE, Daegu, South Korea) in a humidified atmosphere of 5% CO2 at 37° C. To obtain GnRHR-overexpressing HEK293 (HEK293-GnRHR) cells, transfection of the pCMV-AC-GFP-GnRHR vector (HEK293-GnRHR) was performed using Lipofectamine™ 3000 according to the manufacturer's instructions (Cat. 100022052, Thermo Fisher Scientific, Waltham, MA, USA). Colonies of geneticin-resistant cells were selected by adding G418 (800 μg/mL, Sigma) to the culture medium. The HEK293-pCMV-AC-GFP vector (HEK293-Vector) cells were used as a mock-transfection group.
The HEK293-pCMV6-AC-GFP and HEK293-GnRHR cells (4×10^4 cells/well) were grown in 96-well plates and co-transfected with a luciferase reporter plasmid containing a cAMP response element (CRE) using Lipofectamine 3000 (Life Technologies). The transfected cells were exposed to different concentrations of peptide for 24 h, and the promoter activity was measured by a dual-luciferase reporter assay system (BPS Bioscience). The firefly and Renilla luciferase activities were measured using a microplate luminometer (Thermo, Varioskan LUX Multimode Microplate Reader). The calculation of relative luciferase activities involved the normalization of the firefly luciferase activity […].

[3] = tested on: HEK293-Vector cells; test: CRE-luciferase reporter assay, mock-transfected cells; format: cell-based, human
Procedure: as §1, with “group. […] The transfected cells were exposed to different concentrations of peptide for 24 h, and the promoter activity was measured by a dual-luciferase reporter assay system (BPS Bioscience). The firefly and Renilla luciferase activities were measured using a microplate luminometer (Thermo, Varioskan LUX Multimode Microplate Reader). […]” for “group.”

[4] = molecular target: T1, HEK293-GnRHR cells; test: Intracellular calcium flux assay; format: cell-based; settings: 100 nM
Procedure: as §1
Intracellular calcium mobilization was measured using the Calcium Flux Assay Kit (Cat. ab233472, abcam) in response to different concentrations of each peptide. The percentage increase was calculated relative to basal fluorescence intensity. The experiment was performed in triplicate.

Structure (SMILES): CCNC(=O)[C@@H]1CCCN1C(=O)[C@H](CCCNC(=N)N)NC(=O)[C@H](CC(C)C)NC(=O)[C@@H](CC(C)C)NC(=O)[C@H](Cc1ccc(O)cc1)NC(=O)[C@H](CO)NC(=O)[C@H](Cc1c[nH]c2ccccc12)NC(=O)[C@H](Cc1c[nH]cn1)NC(=O)[C@@H]1CCC(=O)N1 [LA, Leuprolide acetate, reference compound]
- expression of c-Myc in tumor tissue [1]: significantly downregulated
- expression of p-AKT in tumor tissue [1]: significantly downregulated
- expression of p-ERK1/2 in tumor tissue [1]: significantly downregulated
- CRE-derived reporter gene activity [2]: induced CRE-derived reporter gene activity
- CRE-luciferase activity [3]: no significant change
- calcium flux [4]: more potent effect of calcium flux in HEK293-GnRHR cells than in HEK293-Vector cells

— US20240247031A1, “COMPOSITION FOR TREATING CANCER CONTAINING TELOMERASE-TARGETING GNRH ANTAGONIST-DERIVED PEPTIDE HS1002” (Research & Business Foundation Sungkyunkwan University, priority 2023, published 2024)
